According to article PMC12670160, “A drug-repurposing screen of FDA- and EMA-approved drugs identifies two NF-κB inhibitors active against eumycetoma” (Journal of Antimicrobial Chemotherapy, 2025):
≈ marks a conversion by molar mass, not a printed value. Read-outs that look alike come from different tables or passages of the source.

Columns and labels:
[1] = system: eumycetoma; settings: first 6 months of treatment, cited from earlier work
[2] = system: M. mycetomatis; test: In vitro susceptibility, averages over M. mycetomatis isolates (average metabolic activity at 2 µM, mean MIC); assay type: cell-based; settings: Madurella mycetomatis, 96 h, 4 days at 37°C, CellTiter-Glo, average of 3 isolates, 20% or below = inhibition
Method: M. mycetomatis isolate MM55 was used to screen the Oncode library. This strain was kindly provided by Prof. […] The three M. mycetomatis isolates were identified by ITS sequencing and maintained at −80°C at Erasmus MC. Prior to in vitro screening, isolates were cultured on Sabouraud agar plates (BD, Erembodegem, Belgium) at 37°C.
The Oncode Drug Repurposing library was based on the drug repurposing library from the Drug Repurposing Hub of the Broad Institute and recreated by the Oncode institute.[13] […] Each well of the 384-well plates contained 0.6 µL of a 200 µM stock concentration of compound, resulting in a final concentration of 2 µM when the fungus was added. […] Furthermore, this concentration could also be reached in the G. mellonella larvae.[8],[11] The prepared 384-well plates were transferred on dry ice to the Erasmus MC and stored at −80°C until they were screened.
(§1) Each plate also contained a growth control (60 µL of M. mycetomatis hyphal suspension, plus 0.6 µL of DMSO) and a negative control (60 µL of culture medium, plus 0.6 µL of DMSO). Plates were then incubated for 4 days at 37°C, after which 30 µL of CellTiter-Glo 3D Cell Viability reagent was added to every well.[19] After 25 min of incubation at room temperature, the luminescence was measured with a CytoFluor Series 4000 luminometer (PerSeptive Biosystems, Framingham, MA, USA). To determine the metabolic activity, the following formula was used:
(§2) Percentagemetabolicactivity=(Absorbancetestluminensence−AbsorbanceNCluminensence/AbsorbanceGCluminensence−AbsorbanceNCluminensence)×100
(§3) where, GC is growth control and NC is negative control. The luminescence measured for the GC is considered as 100% metabolic activity. The luminescence for the NC is considered as 0% metabolic activity.

[3] = system: M. mycetomatis strain mm55; test: IC50 and MIC determination, CellTiter-Glo, strain mm55; assay type: cell-based, Madurella mycetomatis; settings: for IC50: concentration inhibiting 50% of fungal hyphae growth; for MIC: concentration with complete growth inhibition
[4] = system: M. mycetomatis strain P1; test: IC50 and MIC determination, CellTiter-Glo, strain P1; assay type: cell-based, Madurella mycetomatis
[5] = system: M. mycetomatis strain I1; test: IC50 and MIC determination, CellTiter-Glo, strain I1; assay type: cell-based, Madurella mycetomatis
[6] = system: M. mycetomatis; test: In vitro susceptibility, averages over M. mycetomatis isolates (average metabolic activity at 2 µM, mean MIC); assay type: cell-based, Madurella mycetomatis; settings: for MIC: Madurella mycetomatis, mean/average over strains MM55, P1 and I1; for Average metabolic activity at 2 µM (%): 4 days at 37°C, CellTiter-Glo, average of 3 isolates, 20% or below = inhibition
[7] = system: M. mycetomatis; set-up: method as in PMID 35398930, PMID 15793113, PMID 36005544, PMID 34181477, PMID 22964246; settings: against M. mycetomatis; cited from earlier work
[8] = system: M. mycetomatis isolate MM55; test: Oncode library screen at 2 µM, CLSI-based in vitro susceptibility assay with CellTiter-Glo (metabolic activity); assay type: cell-based, Madurella mycetomatis; settings: primary screen, strain MM55, 20% or below = inhibition
Method: M. mycetomatis isolate MM55 was used to screen the Oncode library. This strain was kindly provided by Prof. A. Fahal of the Mycetoma Research Centre in 1999. The most promising hit compounds were also screened against M. mycetomatis isolates P1 and I1, which originated from Mali and India, respectively.[17] The three M. mycetomatis isolates were identified by ITS sequencing and maintained at −80°C at Erasmus MC. Prior to in vitro screening, isolates were cultured on Sabouraud agar plates (BD, Erembodegem, Belgium) at 37°C.
The Oncode Drug Repurposing library was based on the drug repurposing library from the Drug Repurposing Hub of the Broad Institute and recreated by the Oncode institute.[13] The library contained 5631 drugs.[18] A copy of this library was plated out on 384-well plates with lids (cat no. 655180; Greiner Bio-One, Alphen aan den Rijn, The Netherlands) by the Leiden University Medical Center. Each well of the 384-well plates contained 0.6 µL of a 200 µM stock concentration of compound, resulting in a final concentration of 2 µM when the fungus was added. From the previous libraries we screened, we noted that there are several compounds able to inhibit M. mycetomatis at this concentration in vitro. Furthermore, this concentration could also be reached in the G. mellonella larvae.[8],[11] The prepared 384-well plates were transferred on dry ice to the Erasmus MC and stored at −80°C until they were screened. We created a second library from the original library, containing only those 29 compounds that were active in the first screen.
as §1, with “. Each” for “Each”
as §2, §3

[9] = system: M. mycetomatis-infected G. mellonella larvae; settings: cited from earlier work
[10] = system: healthy uninfected G. mellonella larvae; settings: 10 day observation; for Toxicity in G. mellonella larvae at concentrations as low as 0.5 µM: tested at 20, 10, 5, 1 and 0.5 µM
Method: (§4) For in vivo experiments, sixth-week instar G. mellonella larvae were purchased from Blue-Lagoon, Maassluis, The Netherlands. The larvae were raised and kept in the dark at room temperature. Larvae without any discoloration and weighing around 500 mg were selected for experiments.
To determine the toxicity, 15 healthy uninfected larvae were injected with 20 µL of 20 µM compound as previously described.[16] […] As a control, a separate group of larvae were injected with 20 µL of PBS. Larvae were housed in Petri dishes with Whatman paper at 37°C in the dark. Survival was monitored for 10 days.

[11] = system: M. mycetomatis MM55-infected G. mellonella larvae; test: Therapeutic efficacy in M. mycetomatis-infected G. mellonella larvae (survival, log-rank); assay type: in vivo, Galleria mellonella; settings: 20 µL of 10 µM at 4, 28 and 52 h post infection; 10 days
Method: as §4
The wet weight was determined and 10 mL of PBS per gram of mycelia was added. The suspension was then sonicated for 2 min to achieve a particle size of 10 µm. The fungal suspension (4 mg/40 µL) was injected into the last left pro-leg of a healthy G. mellonella larva with an insulin 29G U-100 needle to reach a final inoculum of 4 mg/larva. Larvae were placed in Petri dishes containing Whatman paper in a 37°C incubator.
A control group was also included in which M. mycetomatis-infected larvae were treated with PBS or with 1 mg/kg amphotericin B (Fungizone, Bristol Myers Squibb, Utrecht, The Netherlands). […] The treatment was repeated at 28 h post infection and 52 h post infection via different prolegs. The infection was monitored for 10 days.
To compare the survival rates between PBS treatment control and the different experimental groups a log-rank test was performed. All data were processed and performed in GraphPad Prism 10.

[12] = M. mycetomatis-infected G. mellonella larvae
[13] = only at concentrations higher than used in human patients

Row | Molecule | activity at 2 µM [2] [%] | IC50 ([3]; Madurella mycetomatis) [µM] | MIC ([3]; Madurella mycetomatis) [µM] | IC50 ([4]; Madurella mycetomatis, P1) [µM] | MIC ([4]; Madurella mycetomatis, P1) [µM] | IC50 ([5]; Madurella mycetomatis, I1) [µM] | MIC ([5]; Madurella mycetomatis, I1) [µM] | MIC50 [7] [µg/mL] | other results
1 | C[C@@H](c1nc(-c2ccc(C#N)cc2)cs1)[C@@](Cn1cncn1)(OCOP(=O)(O)O)c1ccc(F)cc1F [fosravuconazole] |  |  |  |  |  |  |  |  | lesion size or β-glucan levels ([1]; 200 mg/week): no reduction; lesion size or β-glucan levels ([1]; 300 mg/week): no reduction
2 | N#C/C(=C1/SCC(c2ccccc2Cl)S1)n1ccnc1 (centres unmarked) [Lanoconazole] | 3 | 0.04 | 0.06 (≈ 0.0192 µg/mL) | < 0.03 | 0.03 (≈ 0.0096 µg/mL) | < 0.03 | 0.03 (≈ 0.0096 µg/mL) | 0.002 (≈ 0.00625 µM) | MIC [6]: < 0.03 µM
3 | Cc1ccc(-c2c(-c3nn(C)c4ncnc(N5CC[C@H](N6CCCCC6)C5)c34)cnn2C)cc1 [pf4981517] |  |  |  |  |  |  |  |  | Madurella mycetomatis metabolic activity at 2µM (%) [8]: 79.1%
4 | COC(=O)C1=C(C#N)NC(C)=C(C(=O)OC(C)C)C1c1cccc([N+](=O)[O-])c1 (centres unmarked) [nilvadipine arc029] |  |  |  |  |  |  |  |  | Madurella mycetomatis metabolic activity at 2µM (%) [8]: 85.2%
5 | CC(C)OC(=O)C1=CN(C(=O)c2ccc(F)c(F)c2)CC(C)(C)c2c1[nH]c1ccccc21 [turofexorate isopropyl xl335] |  |  |  |  |  |  |  |  | Madurella mycetomatis metabolic activity at 2µM (%) [8]: 92.4%
6 | C[C@@H](c1ncncc1F)[C@](O)(Cn1cncn1)c1ccc(F)cc1F [Voriconazole] | 1.1 | 0.63 | 1 (≈ 0.349 µg/mL) | 0.33 | 0.5 (≈ 0.175 µg/mL) | 0.2 | 0.25 (≈ 0.0873 µg/mL) | 0.125 (≈ 0.358 µM) | larval survival [9, 12]: No prolonged larval survival
7 | O=C(NC[C@H]1CN(c2ccc(N3CCOCC3=O)cc2)C(=O)O1)c1ccc(Cl)s1 [rivaroxaban xarelto] |  |  |  |  |  |  |  |  | Madurella mycetomatis metabolic activity at 2µM (%) [8]: 98.3%
8 | CC(=O)[O][Hg][c]1ccccc1 [Phenylmercuric acetate] |  |  |  |  |  |  |  |  | IC50 [3]: 1.12 µM; MIC [3]: 2.00 µM; IC50 ([4]; strain P1): < 0.03 µM; MIC ([4]; strain P1): 0.03 µM; IC50 ([5]; strain I1): 0.45 µM; MIC ([5]; strain I1): 0.50 µM; Toxicity in G. mellonella larvae at concentrations as low as 0.5 µM [10]: toxic; Average metabolic activity at 2 µM (%) [6]: 2.0%
9 | N#C/C(=C1/SC[C@@H](c2ccc(Cl)cc2Cl)S1)n1ccnc1 [Luliconazole] | 1 | < 0.03 | 0.03 (≈ 0.0106 µg/mL) | < 0.03 | 0.03 (≈ 0.0106 µg/mL) | < 0.03 | 0.03 (≈ 0.0106 µg/mL) | 0.001 (≈ 0.00282 µM) | MIC [6]: < 0.03 µM
10 | Bleomycin |  |  |  |  |  |  |  |  | IC50 [3]: 0.21 µM; MIC [3]: 0.50 µM; IC50 ([4]; strain P1): < 0.03 µM; MIC ([4]; strain P1): 0.03 µM; IC50 ([5]; strain I1): 0.2 µM; MIC ([5]; strain I1): 0.25 µM; Toxicity in G. mellonella larvae at concentrations as low as 0.5 µM [10]: toxic; Average metabolic activity at 2 µM (%) [6]: 1.6%
11 | C[CH2][Hg][S]c1ccccc1C(=O)[O-].[Na+] [Thimerosal] |  |  |  |  |  |  |  |  | IC50 [3]: 0.08 µM; MIC [3]: 0.25 µM; IC50 ([4]; strain P1): < 0.03 µM; MIC ([4]; strain P1): 0.03 µM; IC50 ([5]; strain I1): 0.04 µM; MIC ([5]; strain I1): 0.06 µM; Toxicity in G. mellonella larvae at 20 µM ([10]; 20 µL of 20 µM injected, toxic if more than 20% of larvae died): toxicity was noted; Survival of M. mycetomatis-infected larvae versus PBS [11]: No prolonged survival; log-rank P versus PBS treatment [11]: 0.5242; Average metabolic activity at 2 µM (%) [6]: 1.4%
12 | CC(=O)N1CCN(c2ccc(OCC3COC(Cn4ccnc4)(c4ccc(Cl)cc4Cl)O3)cc2)CC1 (centres unmarked) [Ketoconazole] | 0.9 | 0.66 | 1 (≈ 0.531 µg/mL) | 0.17 | 0.25 (≈ 0.133 µg/mL) | 0.05 | 0.06 (≈ 0.0319 µg/mL) |  | larval survival [9, 12]: No prolonged larval survival
13 | C[C@@H](c1nc(-c2ccc(C#N)cc2)cs1)[C@](O)(Cn1cncn1)c1ccc(F)cc1F [Ravuconazole] | 1.3 | 0.17 | 0.25 (≈ 0.109 µg/mL) | < 0.03 | 0.06 (≈ 0.0262 µg/mL) | < 0.03 | 0.03 (≈ 0.0131 µg/mL) | 0.016 (≈ 0.0366 µM) | larval survival [9, 13]: Prolonged survival
14 | CC[C@@H]([C@H](C)O)n1ncn(-c2ccc(N3CCN(c4ccc(OC[C@@H]5CO[C@@](Cn6cncn6)(c6ccc(F)cc6F)C5)cc4)CC3)cc2)c1=O [Posaconazole] | 1.9 | 0.13 | 0.25 (≈ 0.175 µg/mL) | < 0.03 | 0.03 (≈ 0.021 µg/mL) | < 0.03 | 0.03 (≈ 0.021 µg/mL) | 0.03 (≈ 0.0428 µM) | MIC [6]: < 0.03 µM; larval survival [9, 13]: Prolonged survival
